Literature values in patent publication US20210177743A1, “Self-Assembling Multi-Domain Peptide Based Hydrogels” (New Jersey Institute of Technology, priority 2018, published 2021).

Tested on: hepatocytes with low LDL receptors due to PCSK9

For TVFTSWEEYLDWV [Pep2-8], the “LDL receptors on the cell surface” value is given as “restore the receptors to the cell surface”.
